Measured values: ChEMBL document CHEMBL5029159, “Reduction of Progranulin-Induced Breast Cancer Stem Cell Propagation by Sortilin-Targeting Cyclotriazadisulfonamide (CADA) Compounds” (J Med Chem, 2021)
Active and inactive are the calls of the source. No cut-off for these calls is given here.

Tests used:
HEK-293T [1] = assay: (§1) Cytotoxicity against human HEK293T cells assessed as reduction in cell viability after 72 hrs by alamar blue assay; assay type: cell-based; details: hek-293t, 72 h
HEK-293T [2] = assay: Down modulation of sortilin expression in HEK293T cells tranfected with GFP-tagged sortilin incubated for 24 hrs by flow cytometric analysis; assay type: functional, cell-based; details: Homo sapiens
[3] = Kinetic solubility of compound at pH 7.4 PBS buffer incubated for 30 mins by nephelometry; assay type: physicochemical; details: for Kinetic_solubility: buffer, pH 7.4, 0.5 h; for solubility kinetic at 0.5 h: PBS buffer, pH 7.4, read-out: Kinetic_solubility
[4] = Therapeutic index, ratio of CC50 for cytotoxicity against human HEK293T cells to ratio of IC50 for Down modulation of sortilin expression in HEK293T cells tranfected with GFP-tagged sortilin incubated for 24 hrs by flow cytometric analysis; assay type: toxicity, cell-based; details: read-out: TI
MDA-MB-231 [5] = assay: Inhibition of mammosphere-forming capacity in ER-negative human MDA-MB-231 cells assessed inhibition of as progranulin-induced mammosphere formation at 1 uM measured after 48 hrs by microscopy; assay type: functional, cell-based
MCF7 [6] = assay: Effect on mammosphere-forming capacity in ER-positive human MCF7 cells measured after 48 hrs by microscopy; assay type: functional, cell-based
MCF7 [7] = assay: Inhibition of mammosphere-forming capacity in ER-positive human MCF7 cells assessed as inhibition of progranulin-induced mammosphere formation at 4 uM measured after 48 hrs by microscopy; assay type: functional, cell-based
MDA-MB-231 [8] = assay: Inhibition of mammosphere-forming capacity in ER-negative human MDA-MB-231 cells assessed as inhibition of progranulin-induced mammosphere formation at 4 uM measured after 48 hrs by microscopy; assay type: functional, cell-based
MDA-MB-231 [9] = assay: Effect on mammosphere-forming capacity in ER-negative human MDA-MB-231 cells measured after 48 hrs by microscopy; assay type: functional, cell-based
[10] = as §1; assay type: cell-based, HEK-293T; details: HEK293T cells
MDA-MB-231 [11] = assay: Down modulation of sortilin expression in ERalpha-negative human MDA-MB-231 cells incubated for 48 hrs by Western blot analysis; assay type: ADME, cell-based; details: mda-mb-231, 48 h
MCF7 [12] = assay: Inhibition of mammosphere-forming capacity in ER-positive human MCF7 cells assessed as inhibition of progranulin-induced mammosphere formation at 1 uM measured after 48 hrs by microscopy; assay type: functional, cell-based
MCF7 [13] = assay: Cytotoxicity against human MCF7 cells assessed as reduction in cell viability after 48 hrs by alamar blue assay; assay type: functional, cell-based
MDA-MB-231 [14] = assay: Cytotoxicity against human MDA-MB-231 cells assessed as reduction in cell viability after 48 hrs by alamar blue assay; assay type: functional, cell-based
MCF7 [15] = assay: Down modulation of sortilin expression in ERalpha-positive human MCF7 cells incubated for 48 hrs by Western blot analysis; assay type: ADME, cell-based; details: mcf7, 48 h

Compound | CC50 (HEK-293T [1]) [µM] | IC50 (HEK-293T [2]) [µM] | Kinetic_solubility [3] [µM] | selectivity ratio at 24 h [4] | inhibition (MDA-MB-231 [5]) | Activity (MCF7 [6]) | inhibition (MCF7 [7]) | inhibition (MDA-MB-231 [8]) | Activity (MDA-MB-231 [9]) | CC50 at 72 h [10] [µM] | Activity (MDA-MB-231 [11]) | inhibition (MCF7 [12]) | Activity (MCF7 [13]) | Activity (MDA-MB-231 [14]) | Activity (MCF7 [15]) | solubility kinetic at 0.5 h [3] [µM]
C=C1CN(S(=O)(=O)c2ccc(C)cc2)CCCN(CC2CCCCC2)CCCN(S(=O)(=O)c2ccc(OCCO)cc2)C1.Cl | 15 | 9 | 59 | 1.7 | Active | inactive | Active | Active | inactive |  |  |  |  |  |  | 
C=C1CN(S(=O)(=O)c2ccc(N(C)C)cc2)CCCN(CC2CCCCC2)CCCN(S(=O)(=O)c2cccc3ccccc23)C1.Cl |  | 1.9 | 60 | > 26 | Active | inactive |  |  | inactive | > 50 | Active | Active | inactive | inactive | Dose-Dependent Effect | 
C=C1CN(S(=O)(=O)c2ccc(C)cc2)CCCN(CC2CCCCC2)CCCN(S(=O)(=O)c2ccc(OC)cc2)C1.Cl | 1.4 | 0.5 | 57 | 2.8 |  | inactive |  |  | inactive |  |  |  |  |  |  | 
C=C1CN(S(=O)(=O)c2ccc(C)cc2)CCCN(CCc2ccccc2)CCCN(S(=O)(=O)c2ccc(C)cc2)C1.Cl |  | 1 | 55 | > 50 | Active | inactive |  |  | inactive | 50 | Active | Active | inactive | inactive | Dose-Dependent Effect | 
C=C1CN(S(=O)(=O)c2ccc(C)cc2)CCc2cc(-c3ccccc3)cc(n2)CCN(S(=O)(=O)c2ccc(C)cc2)C1.Cl | > 50 | 4 |  | > 12.5 | Active | inactive | Active | Active | inactive |  |  |  |  |  |  | 61
C=C1CN(S(=O)(=O)c2ccc(OC)cc2)CCCN(CC2CCCCC2)CCCN(S(=O)(=O)c2ccc(N(C)C)cc2)C1.Cl | 1 | 0.1 | 56 | 10 | Active | inactive |  |  | inactive |  | Active | Active | inactive | inactive | Dose-Dependent Effect | 
C=C1CN(S(=O)(=O)c2ccc(C)cc2)CCCN(Cc2ccccc2)CCCN(S(=O)(=O)c2ccc(C)cc2)C1.Cl [CYCLOTRIAZADISULFONAMIDE HYDROCHLORIDE] | > 50 | 2.2 |  | > 23 |  | inactive |  |  | inactive |  |  |  |  |  |  | 43
